Experimental data from paper PMC3429506, “Screening for Novel LRRK2 Inhibitors Using a High-Throughput TR-FRET Cellular Assay for LRRK2 Ser935 Phosphorylation” (PLoS ONE, 2012).

Key:
LRRK2 G2019S = LRRK2 G2019S (Homo sapiens, UniProt Q5S007, G2019S); assay: TR-FRET cellular assay for LRRK2 Ser935 phosphorylation, human neural stem cells, BacMam LRRK2-GFP G2019S; assay type: cell-based; parameters: This high-throughput assay utilizes cells expressing full-length human LRRK2 with a C-terminal GFP tag (LRRK2-GFP); host or cells: U-2 OS, SH-SY5Y, HEK293T cells or human neural stem cells transduced with BacMam; settings: 10% BacMam G2019S, 90 min, Figure 4, read-out: IC50, inhibition of G2019S Ser935 phosphorylation via TR-FRET
Experimental: U-2 OS cells are maintained in growth medium (McCoy’s 5A supplemented with 10% dialyzed FBS (dFBS), 10 mM HEPES, 0.1 mM NEAA, 1 mM Sodium Pyruvate, and 100 U/mL Penicillin/100 µg/mL Streptomycin). HEK293T cells are maintained in DMEM with 10% dFBS, 10 mM HEPES, 0.1 mM NEAA and 100 U/mL Penicillin/100 µg/mL Streptomycin. SH-SY5Y cells are maintained in DMEM/F-12 medium supplemented with 10% dFBS and 100 U/mL Penicillin/100 µg/mL Streptomycin. […] GIBCO® human neural stem cells (hNSCs) were propagated as an adherent culture in StemPro® NSC SFM according to the manufacturer’s recommended protocol (Life Technologies). For BacMam transduction of U-2 OS and HEK293T, cells were harvested, mixed with various amounts of BacMam LRRK2-GFP reagent (v/v) and plated onto 6-well plates. […] Cells were assayed in 384-well format (∼20,000 cells/well) 48 hours post-transduction as above.
Transduced cells in the 384-well assay plate were incubated with indicated inhibitors (5X, 5 µL/well) for 60 to 90 minutes. During this time, 6 X lysis buffer (Life Technologies) was supplemented with 30 nM Tb-labeled anti-LRRK2 pSer935 antibody and both protease and phosphatase inhibitor cocktails (Sigma). […] Z′-factor values were calculated as: Z′-factor = 1 - [(3 × stdevno virus +3 × stdevmaxvirus)/(avgmaxvirus – avgno-virus)]. […]

GFP-LRRK2 G2019S = molecular target: T1, GFP-LRRK2 G2019S (Homo sapiens, UniProt Q5S007, G2019S); assay: Immunoprecipitation/Western analysis of LRRK2 phosphorylation at Ser910, Ser935, Ser955, Ser973 in HEK293 T-REx GFP-LRRK2 G2019S cells; assay type: cell-based; settings: 20 µM, 90 min, HEK293 GFP-LRRK2 G2019S, Figure 6
T1 construct: expressed in transfected cells
Experimental: Immunoblot analysis: BacMam LRRK2-GFP transduced U-2 OS or SH-SY5Y cells (10^7 cells) were left untreated or treated with 3 µM LRRK2-IN-I for 90 min. For lysate preparation, the cells were washed once with ice-cold PBS and lysed by addition of ice-cold lysis buffer (20 mM Tris-HCl, pH 7.4, 1% NP-40, 5 mM EDTA, 5 mM NaF, 150 mM NaCl, and 1∶100 of protease and phosphatase inhibitor cocktails). The lysate was cleared of debris by centrifugation. Equal amount of total protein was loaded onto each lane for SDS-PAGE (3–8% Tris Acetate). The proteins were transferred onto nitrocellulose membrane using the iBLOT® dry blotting system (Life Technologies) according to manufacturer’s protocol. The membranes were blocked and incubated with a primary antibody against LRRK2 (Cell Signaling Technologies), followed by incubation with alkaline phosphatase-conjugated secondary antibody (WesternBreeze® chromogenic Kit, Life Technologies). The blot was developed by using the chromogenic BCIP/NBT substrate (WesternBreeze® chromogenic Kit, Life Technologies). […] Two days post induction, cells were treated for 90 minutes in the presence of 20 µM of compound or DMSO vehicle control. Cells were rapidly lysed in ice cold lysis buffer 50 mM Tris/HCl, pH 7.5, 1 mM EGTA, 1 mM EDTA, […] 1 mM sodium orthovanadate, 10 mM sodium beta-glycerolphosphate, 50 mM NaF, 5 mM sodium pyrophosphate, 0.27 M sucrose, 1 mM benzamidine and 2 mM phenylmethanesulphonylfluoride (PMSF) and one tablet each complete protease inhibitor and PhosSTOP phosphatase inhibitor (Roche) and was supplemented with 1% (v/v) Triton X-100. GFP-LRRK2 was immunoprecipitated with GFP nanotrap beads (ChromoTek). Immunecomplexes were washed twice with lysis buffer supplemented with 300 mM NaCl and once with Buffer A (50 mM Tris/HCl, pH 7.5, 50 mM NaCl, 0.1 mM EGTA and 0.1% (v/v) 2-mercaptoethanol, and 0.27 M sucrose).

LRRK2-GFP [1] = molecular target: T2, LRRK2-GFP (Homo sapiens, UniProt Q5S007, G2019S); assay: Western blot analysis of LRRK2-GFP phosphorylation in BacMam transduced U-2 OS cells; assay type: cell-based; settings: BacMam LRRK2-GFP G2019S, 10 µM, Figure S1
T2 construct: GFP is fused to the C-terminus of full-length human LRRK2 wild-type, G2019S, R1441C and kinase-dead D1994A; host or cells: U-2 OS cells transduced with BacMam
Experimental: (§1) Immunoblot analysis: BacMam LRRK2-GFP transduced U-2 OS or SH-SY5Y cells (10^7 cells) were left untreated or treated with 3 µM LRRK2-IN-I for 90 min. For lysate preparation, the cells were washed once with ice-cold PBS and lysed by addition of ice-cold lysis buffer (20 mM Tris-HCl, pH 7.4, 1% NP-40, 5 mM EDTA, 5 mM NaF, 150 mM NaCl, and 1∶100 of protease and phosphatase inhibitor cocktails). The lysate was cleared of debris by centrifugation. Equal amount of total protein was loaded onto each lane for SDS-PAGE (3–8% Tris Acetate). The proteins were transferred onto nitrocellulose membrane using the iBLOT® dry blotting system (Life Technologies) according to manufacturer’s protocol. The membranes were blocked and incubated with a primary antibody against LRRK2 (Cell Signaling Technologies), followed by incubation with alkaline phosphatase-conjugated secondary antibody (WesternBreeze® chromogenic Kit, Life Technologies). The blot was developed by using the chromogenic BCIP/NBT substrate (WesternBreeze® chromogenic Kit, Life Technologies). […]

LRRK2-GFP [2] = assay: as above; assay type: cell-based, human; settings: LRRK2-IN-1 3 µM 90 min, wild-type, G2019S, R1441C, Figure 1B
Experimental: as §1

Chain of LRRK2 G2019S (Q5S007 whole entry G2019S): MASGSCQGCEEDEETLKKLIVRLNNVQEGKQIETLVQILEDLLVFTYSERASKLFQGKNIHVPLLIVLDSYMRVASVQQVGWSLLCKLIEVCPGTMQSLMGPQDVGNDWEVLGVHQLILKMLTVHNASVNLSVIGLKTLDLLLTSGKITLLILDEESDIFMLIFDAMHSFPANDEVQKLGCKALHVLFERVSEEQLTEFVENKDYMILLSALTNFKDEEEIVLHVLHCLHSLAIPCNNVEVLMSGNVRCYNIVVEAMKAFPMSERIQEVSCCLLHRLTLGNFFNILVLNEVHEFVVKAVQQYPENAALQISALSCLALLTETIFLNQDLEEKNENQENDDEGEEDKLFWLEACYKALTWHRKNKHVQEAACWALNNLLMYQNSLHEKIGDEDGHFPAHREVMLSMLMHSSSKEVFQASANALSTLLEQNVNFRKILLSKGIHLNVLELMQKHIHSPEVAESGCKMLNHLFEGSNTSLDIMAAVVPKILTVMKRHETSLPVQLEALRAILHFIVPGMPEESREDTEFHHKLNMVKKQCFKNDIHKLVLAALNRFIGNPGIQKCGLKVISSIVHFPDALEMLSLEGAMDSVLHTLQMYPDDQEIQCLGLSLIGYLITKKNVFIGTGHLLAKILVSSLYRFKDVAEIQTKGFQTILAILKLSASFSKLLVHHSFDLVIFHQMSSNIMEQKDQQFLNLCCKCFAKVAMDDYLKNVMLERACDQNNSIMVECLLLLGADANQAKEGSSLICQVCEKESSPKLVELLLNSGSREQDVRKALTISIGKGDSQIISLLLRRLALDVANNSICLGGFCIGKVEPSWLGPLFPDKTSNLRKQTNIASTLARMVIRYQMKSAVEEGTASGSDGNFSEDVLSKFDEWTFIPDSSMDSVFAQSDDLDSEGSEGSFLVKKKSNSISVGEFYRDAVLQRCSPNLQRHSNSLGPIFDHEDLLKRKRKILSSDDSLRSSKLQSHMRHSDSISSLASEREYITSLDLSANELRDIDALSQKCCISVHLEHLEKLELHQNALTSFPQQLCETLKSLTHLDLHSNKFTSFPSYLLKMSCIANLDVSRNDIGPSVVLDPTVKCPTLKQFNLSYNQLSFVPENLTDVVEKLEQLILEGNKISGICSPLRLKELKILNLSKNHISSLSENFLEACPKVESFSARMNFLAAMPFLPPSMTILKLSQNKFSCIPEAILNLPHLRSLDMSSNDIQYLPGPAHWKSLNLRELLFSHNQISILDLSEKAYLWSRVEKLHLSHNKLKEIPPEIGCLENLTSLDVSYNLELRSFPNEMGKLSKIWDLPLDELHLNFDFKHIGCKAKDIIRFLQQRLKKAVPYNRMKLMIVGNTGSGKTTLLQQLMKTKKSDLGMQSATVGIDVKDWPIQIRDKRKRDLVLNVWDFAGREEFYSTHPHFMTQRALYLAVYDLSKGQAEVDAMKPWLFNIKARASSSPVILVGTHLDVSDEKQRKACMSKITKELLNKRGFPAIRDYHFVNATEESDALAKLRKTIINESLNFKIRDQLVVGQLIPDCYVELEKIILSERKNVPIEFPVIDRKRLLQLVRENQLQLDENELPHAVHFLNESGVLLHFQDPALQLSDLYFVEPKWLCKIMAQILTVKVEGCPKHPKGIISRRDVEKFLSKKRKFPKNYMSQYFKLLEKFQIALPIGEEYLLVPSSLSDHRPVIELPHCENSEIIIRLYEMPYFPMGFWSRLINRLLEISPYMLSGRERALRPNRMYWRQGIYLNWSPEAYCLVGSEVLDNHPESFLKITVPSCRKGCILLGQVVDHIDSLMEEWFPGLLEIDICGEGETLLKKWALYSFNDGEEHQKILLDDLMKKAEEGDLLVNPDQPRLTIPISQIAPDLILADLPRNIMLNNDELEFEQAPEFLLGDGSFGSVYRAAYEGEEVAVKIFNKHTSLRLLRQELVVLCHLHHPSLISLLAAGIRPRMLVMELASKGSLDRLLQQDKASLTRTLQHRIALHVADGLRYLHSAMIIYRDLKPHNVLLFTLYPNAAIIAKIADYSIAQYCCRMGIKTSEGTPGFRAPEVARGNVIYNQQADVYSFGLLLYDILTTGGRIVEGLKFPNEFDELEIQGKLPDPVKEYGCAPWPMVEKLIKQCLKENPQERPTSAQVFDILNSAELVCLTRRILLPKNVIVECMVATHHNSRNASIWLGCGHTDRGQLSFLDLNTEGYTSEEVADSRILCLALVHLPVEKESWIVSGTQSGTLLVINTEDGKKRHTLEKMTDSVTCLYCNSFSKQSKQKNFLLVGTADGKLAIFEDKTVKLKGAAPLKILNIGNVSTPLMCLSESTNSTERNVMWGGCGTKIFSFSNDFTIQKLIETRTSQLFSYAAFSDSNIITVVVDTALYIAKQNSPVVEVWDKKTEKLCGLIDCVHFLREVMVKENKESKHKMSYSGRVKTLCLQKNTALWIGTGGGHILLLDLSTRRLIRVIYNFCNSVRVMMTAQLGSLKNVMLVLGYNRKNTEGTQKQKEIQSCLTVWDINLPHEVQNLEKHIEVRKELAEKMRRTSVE
T2 sequence (Q5S007 whole entry G2019S, the tested form may be a part): as the sequence (Q5S007 whole entry G2019S) above
T1 sequence (Q5S007 whole entry G2019S): as above

COc1cc(C(=O)N2CCC(N3CCN(C)CC3)CC2)ccc1Nc1ncc2c(n1)N(C)c1ccccc1C(=O)N2C [LRRK2-IN-1]
IC50 (LRRK2 G2019S): 30 nM
effect on phosphorylation of Ser910, Ser935, Ser955 and Ser973 (IP-Western) (GFP-LRRK2 G2019S): inhibited phosphorylation of Ser910, Ser935, Ser955 and Ser973
phosphorylation at Ser910, Ser935, Ser955 and Ser973 by immunoblot (LRRK2-GFP [1]): responsive to LRRK2-IN-1 treatment
Ser935 phosphorylation by Western blot (LRRK2-GFP [2]): diminished
